Experimental data published in US20260356856A1, “KRAS G12S AND G12C INHIBITORS” (MIRATI THERAPEUTICS, INC., priority 2023, published 2026).

Legend:
[1] = biological target: T1, KRas WT (Homo sapiens, UniProt P01116); experiment: KRas binding assay, TR-FRET displacement of Cy5 labelled tracer; conditions: 60-minute incubation at room temperature, 1% DMSO, pH 7.5
T1 construct: Biotinylated KRas (corresponding to amino acids 1-169, produced at Accelegan Inc.); biotin (biotinylated); purchased Accelegan Inc
T1 sequence (P01116 1-169 isoform P01116-2): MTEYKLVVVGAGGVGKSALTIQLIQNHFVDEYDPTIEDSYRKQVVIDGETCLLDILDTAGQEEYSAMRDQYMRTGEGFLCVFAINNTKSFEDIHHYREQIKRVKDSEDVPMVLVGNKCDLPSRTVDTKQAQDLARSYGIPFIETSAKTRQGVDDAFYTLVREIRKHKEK
Outline: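 Final conditions: 1% DMSO, pH 7.5 HEPES buffer, 60 min, room temperature. Protein: biotin-KRas 1-169 with terbium streptavidin. Output: IC50, four-parameter fit of POC.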

[2] = biological target: T2, KRas G12C (Homo sapiens, UniProt P01116, G12C); experiment: as above; conditions: 60-minute incubation at room temperature, 1% DMSO, pH 7.5
T2 construct: Biotinylated KRas (corresponding to amino acids 1-169, produced at Accelegan Inc.); biotin (biotinylated); purchased Accelegan Inc
T2 sequence (P01116 1-169 isoform P01116-2 G12C): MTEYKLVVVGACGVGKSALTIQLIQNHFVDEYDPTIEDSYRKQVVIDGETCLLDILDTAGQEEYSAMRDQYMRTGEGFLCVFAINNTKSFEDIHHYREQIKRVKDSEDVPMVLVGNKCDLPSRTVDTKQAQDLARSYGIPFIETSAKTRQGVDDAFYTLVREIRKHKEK
Outline: (§1)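 Truncated KRas (1-169), biotinylated, Tb-streptavidin donor; one-hour room-temperature incubation; IC50 by four-parameter curve fitting.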

[3] = biological target: T3, KRas G12S (Homo sapiens, UniProt P01116, G12S); experiment: as above; conditions: 60-minute incubation at room temperature, 1% DMSO, pH 7.5
T3 construct: Biotinylated KRas (corresponding to amino acids 1-169, produced at Accelegan Inc.); biotin (biotinylated); purchased Accelegan Inc
T3 sequence (P01116 1-169 isoform P01116-2 G12S): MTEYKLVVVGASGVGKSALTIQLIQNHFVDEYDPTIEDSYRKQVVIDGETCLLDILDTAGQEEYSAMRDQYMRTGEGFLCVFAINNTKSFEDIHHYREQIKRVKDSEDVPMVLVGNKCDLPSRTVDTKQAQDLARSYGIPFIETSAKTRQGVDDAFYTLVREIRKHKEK
Outline: as §1

[4] = biological target: T4, KRas-mediated phosphorylation of ERK in H358 cells (Homo sapiens, UniProt P01116, G12C); experiment: Inhibition of KRas-mediated phosphorylation of ERK (HTRF), H358 cells; format: cell-based; conditions: HTRF pERK, 3 h incubation
T4 construct: pERK HTRF read-out
T4 sequence (P01116 1-188 isoform P01116-2 G12C): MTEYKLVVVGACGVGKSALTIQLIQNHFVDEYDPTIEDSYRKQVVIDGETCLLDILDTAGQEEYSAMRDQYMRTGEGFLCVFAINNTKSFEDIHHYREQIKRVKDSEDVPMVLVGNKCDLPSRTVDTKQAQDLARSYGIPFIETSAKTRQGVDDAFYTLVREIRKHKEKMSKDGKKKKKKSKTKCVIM

[5] = biological target: T5, KRas-mediated phosphorylation of ERK in A549 cells (Homo sapiens, UniProt P01116, G12S); experiment: Inhibition of KRas-mediated phosphorylation of ERK (HTRF), A549 cells; format: cell-based; conditions: HTRF pERK, 3 h incubation
T5 construct: pERK HTRF read-out
T5 sequence (P01116 1-188 isoform P01116-2 G12S): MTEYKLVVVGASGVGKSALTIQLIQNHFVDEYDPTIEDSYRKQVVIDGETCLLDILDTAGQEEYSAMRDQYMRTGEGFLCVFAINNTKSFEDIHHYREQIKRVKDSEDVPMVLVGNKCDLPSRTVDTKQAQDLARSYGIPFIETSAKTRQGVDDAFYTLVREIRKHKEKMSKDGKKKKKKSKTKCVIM

[6] = biological target: T6, KRas-mediated phosphorylation of ERK in MKN1 cells (Homo sapiens, UniProt P01116); experiment: Inhibition of KRas-mediated phosphorylation of ERK (HTRF), MKN1 cells; format: cell-based; conditions: MKN1 cells (KRas WT); HTRF pERK; 3 h incubation
T6 construct: pERK HTRF read-out
T6 sequence (P01116 1-188 isoform P01116-2): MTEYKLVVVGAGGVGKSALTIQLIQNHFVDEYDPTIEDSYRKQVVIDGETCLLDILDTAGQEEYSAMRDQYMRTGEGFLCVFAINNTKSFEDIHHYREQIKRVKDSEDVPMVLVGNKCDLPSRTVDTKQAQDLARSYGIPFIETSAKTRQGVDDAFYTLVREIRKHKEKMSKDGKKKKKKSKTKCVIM
Procedure: Inhibition of KRas Phosphorylation of ERK (HTRF) by Exemplary Compounds of Formula (Ia) or (Ib)
Cisbio HTRF Advanced pERK Assay Catalog #64AERPEH • Cells: MKN1, PSN1 • Procedure: • 1. Day 1: Seed 6,000 cells/well −25 μl/well in 384-well white solid bottom plate; RPM1_10% FBS. Incubate overnight at 37 °C/5% CO2. • 2.

## N#Cc1c(N)sc2c(F)ccc(-c3c(Cl)cc4c(N5CCC(C(=O)N6C7CCC6COC7)CC5)nc(OC[C@@]56CCCN5C[C@H](F)C6)nc4c3F)c12 [Example 247, 4-(4-(4-(3-oxa-8-azabicyclo[3.2.1]octane-8-carbonyl)piperidin-1-yl)-6-chloro-8-fluoro-2-(((2R,7aS)-2-fluorotetrahydro-1H-pyrrolizin-7a(5H)-yl)methoxy)quinazolin-7-yl)-2-amino-7-fluorobenzo[b]thiophene-3-carbonitrile]
[1]
  IC50: 12 nM
[2]
  IC50: 21 nM
[3]
  IC50: 24 nM
[4]
  IC50: 296 nM
[5]
  IC50: 677 nM
[6]
  IC50: 61 nM

## N#Cc1c(N)sc2c(F)ccc(-c3c(Cl)cc4c(N5CCN(S(=O)(=O)n6cncn6)CC5)nc(OC[C@@]56CCCN5C[C@H](F)C6)nc4c3F)c12 [Example 186, 4-(4-(4-((1H-1,2,4-triazol-1-yl)sulfonyl)piperazin-1-yl)-6-chloro-8-fluoro-2-(((2R,7aS)-2-fluorotetrahydro-1H-pyrrolizin-7a(5H)-yl)methoxy)quinazolin-7-yl)-2-amino-7-fluorobenzo[b]thiophene-3-carbonitrile]
[1]
  IC50: 32 nM
[2]
  IC50: 136 nM
[3]
  IC50: 156 nM
[4]
  IC50: 1120 nM
[5]
  IC50: 2830 nM
[6]
  IC50: 184 nM

## Cc1ccccc1OC(=O)C1CCN(c2nc(OC[C@@]34CCCN3C[C@H](F)C4)nc3c(F)c(-c4ccc(F)c5sc(N)c(C#N)c45)c(Cl)cc23)CC1 [Example 243, o-tolyl 1-(7-(2-amino-3-cyano-7-fluorobenzo[b]thiophen-4-yl)-6-chloro-8-fluoro-2-(((2R,7aS)-2-fluorotetrahydro-1H-pyrrolizin-7a(5H)-yl)methoxy)quinazolin-4-yl)piperidine-4-carboxylate]
[1]
  IC50: 330 nM
[2]
  IC50: 19 nM
[3]
  IC50: 127 nM
[4]
  IC50: 26 nM
[5]
  IC50: 215 nM
[6]
  IC50: 736 nM

## CN(C)c1ccn(C(=O)C2CCCN(c3nc(OC[C@@]45CCCN4C[C@H](F)C5)nc4c(F)c(-c5ccc(F)c6sc(N)c(C#N)c56)c(Cl)cc34)CC2)n1 (stereo partly drawn) [Example 188, 2-amino-4-(6-chloro-4-(4-(3-(dimethylamino)-1H-pyrazole-1-carbonyl)azepan-1-yl)-8-fluoro-2-(((2R,7aS)-2-fluorotetrahydro-1H-pyrrolizin-7a(5H)-yl)methoxy)quinazolin-7-yl)-7-fluorobenzo[b]thiophene-3-carbonitrile]
[1]
  IC50: 26 nM
[2]
  IC50: 8 nM
[3]
  IC50: 13 nM
[4]
  IC50: 9 nM
[5]
  IC50: 39 nM
[6]
  IC50: 140 nM

## N#Cc1c(N)sc2c(F)ccc(-c3c(Cl)cc4c(N5CCC(C(=O)Oc6cccc(Cl)c6)CC5)nc(OC[C@@]56CCCN5C[C@H](F)C6)nc4c3F)c12 [Example 297, 3-chlorophenyl 1-(7-(2-amino-3-cyano-7-fluorobenzo[b]thiophen-4-yl)-6-chloro-8-fluoro-2-(((2R,7aS)-2-fluorotetrahydro-1H-pyrrolizin-7a(5H)-yl)methoxy)quinazolin-4-yl)piperidine-4-carboxylate]
[1]
  IC50: 99 nM
[2]
  IC50: 23 nM
[3]
  IC50: 45 nM
[4]
  IC50: 32 nM
[5]
  IC50: 101 nM
[6]
  IC50: 299 nM

## CCc1c(F)ccc2cc(O)cc(-c3ncc4c(N5CC6CCC(C5)C6C(=O)n5cccn5)nc(OC[C@@]56CCCN5C[C@H](F)C6)nc4c3F)c12 (stereo partly drawn) [Example 59, ((1R,5S,8S)-3-(7-(8-ethyl-7-fluoro-3-hydroxynaphthalen-1-yl)-8-fluoro-2-(((2R,7aS)-2-fluorotetrahydro-1H-pyrrolizin-7a(5H)-yl)methoxy)pyrido[4,3-d]pyrimidin-4-yl)-3-azabicyclo[3.2.1]octan-8-yl)(1H-pyrazol-1-yl)methanone]
[1]
  IC50: < 2 nM
[2]
  IC50: 8 nM
[3]
  IC50: < 2 nM
[4]
  IC50: 486 nM
[5]
  IC50: 372 nM
[6]
  IC50: 27 nM

## CCc1c(F)ccc2cc(O)cc(-c3ncc4c(N5CCCN(C(=O)n6ccc(C)n6)CC5)nc(OC[C@@]56CCCN5C[C@H](F)C6)nc4c3F)c12 [Example 69, (4-(7-(8-ethyl-7-fluoro-3-hydroxynaphthalen-1-yl)-8-fluoro-2-(((2R,7aS)-2-fluorotetrahydro-1H-pyrrolizin-7a(5H)-yl)methoxy)pyrido[4,3-d]pyrimidin-4-yl)-1,4-diazepan-1-yl)(3-methyl-1H-pyrazol-1-yl)methanone]
[1]
  IC50: 6 nM
[2]
  IC50: 79 nM
[3]
  IC50: 124 nM
[4]
  IC50: 1120 nM
[5]
  IC50: 4810 nM
[6]
  IC50: 31 nM

## Cc1ccn(C(=O)CCN(C)c2cc(O[C@@H](C)[C@@H]3CCCN3C)nc(-c3noc([C@]4(C)CCCc5sc(N)c(C#N)c54)n3)n2)n1 [Example 320, (R)-2-amino-4-methyl-4-(3-(4-(methyl (3-(3-methyl-1H-pyrazol-1-yl)-3-oxopropyl)amino)-6-((S)-1-((S)-1-methylpyrrolidin-2-yl)ethoxy)pyrimidin-2-yl)-1,2,4-oxadiazol-5-yl)-4,5,6,7-tetrahydrobenzo[b]thiophene-3-carbonitrile]
[1]
  IC50: 264 nM
[2]
  IC50: 131 nM
[3]
  IC50: 179 nM
[4]
  IC50: > 10000 nM
[5]
  IC50: 621 nM
[6]
  IC50: > 10000 nM

## CCc1c(F)ccc2cc(O)cc(-c3ncc4c(N5CCN(C(=O)n6ccc(C)n6)C(C)C5)nc(OC[C@@]56CCCN5C[C@H](F)C6)nc4c3F)c12 (stereo partly drawn) [Example 82, (4-(7-(8-ethyl-7-fluoro-3-hydroxynaphthalen-1-yl)-8-fluoro-2-(((2R,7aS)-2-fluorotetrahydro-1H-pyrrolizin-7a(5H)-yl)methoxy)pyrido[4,3-d]pyrimidin-4-yl)-2-methylpiperazin-1-yl)(3-methyl-1H-pyrazol-1-yl)methanone]
[1]
  IC50: 23 nM
[2]
  IC50: 34 nM
[3]
  IC50: 28 nM
[4]
  IC50: 499 nM
[5]
  IC50: 3410 nM
[6]
  IC50: 179 nM

## CCc1c(F)ccc2cc(O)cc(-c3ncc4c(N5C[C@H]6C[C@@H](C(=O)n7ccc(C)n7)[C@H]6C5)nc(OC[C@@]56CCCN5C[C@H](F)C6)nc4c3F)c12 [Example 210, ((1S,5S,6R)-3-(7-(8-ethyl-7-fluoro-3-hydroxynaphthalen-1-yl)-8-fluoro-2-(((2R,7aS)-2-fluorotetrahydro-1H-pyrrolizin-7a(5H)-yl)methoxy)pyrido[4,3-d]pyrimidin-4-yl)-3-azabicyclo[3.2.0]heptan-6-yl)(3-methyl-1H-pyrazol-1-yl)methanone]
[1]
  IC50: 2730 nM
[2]
  IC50: 2250 nM
[3]
  IC50: 1290 nM
[4]
  IC50: 8660 nM
[5]
  IC50: 741 nM
[6]
  IC50: 5020 nM

## CCc1c(F)ccc2cc(O)cc(-c3ncc4c(N5CC[C@H]6[C@@H](C5)[C@H]6C(=O)N(C)C(C)=O)nc(OC[C@@]56CCCN5C[C@H](F)C6)nc4c3F)c12 [Example 278, (1R,6S)-N-acetyl-3-(7-(8-ethyl-7-fluoro-3-hydroxynaphthalen-1-yl)-8-fluoro-2-(((2R,7aS)-2-fluorotetrahydro-1H-pyrrolizin-7a(5H)-yl)methoxy)pyrido[4,3-d]pyrimidin-4-yl)-N-methyl-3-azabicyclo[4.1.0]heptane-7-carboxamide]
[1]
  IC50: 41 nM
[2]
  IC50: 58 nM
[3]
  IC50: 48 nM
[4]
  IC50: 1180 nM
[5]
  IC50: 292 nM
[6]
  IC50: 217 nM

## N#Cc1c(N)sc2c(F)ccc(-c3c(Cl)cc4c(N5CCN(S(=O)(=O)n6nccn6)CC5)nc(OC[C@@]56CCCN5C[C@H](F)C6)nc4c3F)c12 [Example 229, 4-(4-(4-((2H-1,2,3-triazol-2-yl)sulfonyl)piperazin-1-yl)-6-chloro-8-fluoro-2-(((2R,7aS)-2-fluorotetrahydro-1H-pyrrolizin-7a(5H)-yl)methoxy)quinazolin-7-yl)-2-amino-7-fluorobenzo[b]thiophene-3-carbonitrile]
[1]
  IC50: 161 nM
[2]
  IC50: 586 nM
[3]
  IC50: 631 nM
[4]
  IC50: > 10000 nM
[5]
  IC50: > 10000 nM
[6]
  IC50: 333 nM

## CN(C)C(=O)N(C)C(=O)CCCN(C)c1nc(OC[C@@]23CCCN2C[C@H](F)C3)nc2c(F)c(-c3ccc(F)c4sc(N)c(C#N)c34)c(Cl)cc12 [Example 239, 4-((7-(2-amino-3-cyano-7-fluorobenzo[b]thiophen-4-yl)-6-chloro-8-fluoro-2-(((2R,7aS)-2-fluorotetrahydro-1H-pyrrolizin-7a(5H)-yl)methoxy)quinazolin-4-yl)(methyl)amino)-N-(dimethylcarbamoyl)-N-methylbutanamide]
[1]
  IC50: 11 nM
[2]
  IC50: 6 nM
[3]
  IC50: 8 nM
[4]
  IC50: 114 nM
[5]
  IC50: 669 nM
[6]
  IC50: 171 nM
